≈ marks a conversion by molar mass, not a printed value. Read-outs that look alike come from different tables or passages of the source. Marks after values point to notes of the source that are not given here.
Assays:
[1] = test system: taxol-resistant A549 cell line (A549/taxol); experiment: MTT antiproliferative assay, A549/taxol; type: cell-based; conditions: Homo sapiens
Method: (§1) The antiproliferative activity of the ten synthesized caged xanthone derivatives, as well as the lead compound DDO-6101 and GA were assessed with the 3-(4,5-dimethylthiazol-2-yl)-2,5-diphenyltetrazolium bromide (MTT) assay, as previously reported, against six human cancer cell lines, including the human lung carcinoma A549 cell line, taxol-resistant A549 cell line (A549/taxol), cisplatin-resistant A549 cell line (A549/cisplatin), the human hepatocellular carcinoma HepG2 cell line, the human colon carcinoma HCT-116 cell line, and the human glioblastoma U251 cell line. DDO-6101 and GA were used as positive controls for the in vitro assay.
(§2) Cancer cell lines were obtained from Cell Bank of Shanghai, Chinese Academy of Sciences. Cells were cultured in 90% RPMI 1640 medium (GIBCO, Invitrogen Corporation, New York, NY, USA) supplemented with 10% fetal bovine serum (Sijiqing Biotechnology Co., Hangzhou, China), 100 U/mL benzyl penicillin, and 100 μg/mL streptomycin in a humidified environment with 5% CO2 at 37 °C. All the tested compounds were dissolved in DMSO at a concentration of 0.01 mol/L and stored at −4 °C.
(§3) The inhibition of tumour cell growth was measured by a modified tetrazolium (MTT) salt assay. Cells were cultured in a 96-well plate and treated with culture medium alone or different concentrations of the compounds. The cells were incubated for 72 h, and then the MTT assay reagent was added. After a 4 h incubation, the formazan product was quantitated at 570 nm. The IC50 values (the concentrations that gave rise to 50% inhibition of cell viability) were calculated using GraphPad Prism 6 using a variable slope (four parameters).

[2] = test system: human hepatocellular carcinoma HepG2 cell line; experiment: MTT antiproliferative assay, HepG2; type: cell-based; conditions: 72 h
Method: as §1, §2, §3

[3] = test system: human colon carcinoma HCT-116 cell line; experiment: MTT antiproliferative assay, HCT116; type: cell-based; conditions: 72 h
Method: as §1, §2, §3

U2OS cells = experiment: MTT antiproliferative assay, U2OS; type: cell-based; conditions: Homo sapiens, 72 h
[4] = logD by potentiometric titration (Gemini Profiler); type: physicochemical; conditions: pH 7.4; measured on Gemini Profiler instrument (pION); read-out: Log D 7.4
[5] = Aqueous solubility by HPLC; conditions: deionized water, thermodynamic from solid
Description: (§4) In parallel with the in vitro antitumor activity testing, the physicochemical properties of the target caged xanthone derivatives were theoretically predicted and experimentally determined in an effort to identify potential druglike compounds prior to the time-consuming and costly development and optimization of derivatives that may ultimately fail in efficacy experiments in vivo. The partition coefficient (logD) was experimentally determined on a Gemini Profiler instrument (pION, Inc., Woburn, MA, USA) by a potentiometric titration method. The polar surface area (PSA), as well as intestinal absorption level, were theoretically predicted by Accelrys Discovery Studio 4.0 (BIOVIA, San Diego, CA, USA) using the ADMET protocol. […] The permeability coefficient (Pe) was determined using a standard parallel artificial membrane permeability assay (PAMPA) on a PAMPA Explorer instrument (pION).
(§5) A HPLC system with an ultraviolet (UV) detector was used to detect the solubility of the compounds. The optimal wavelength was 290 nm. Ethanol/water (85:15) was an efficient eluent at a flow rate of 0.5 mL/min. The compounds were stirred in deionized water overnight to maximize the retention of the compounds in solution. Then, the solutions were filtered and the supernatant was used as a fluid sample for HPLC detection. The permeability (Pe) of the compounds was tested with the help of a standard PAMPA (pION). PAMPA was performed on a PAMPA Explorer instrument (pION) with the PAMPA Explorer command software (Version 3.7.4.1). The compounds were diluted to 10 mM with the system solution buffer (pH 7.4). Then, 150 μL of the diluted compound solution was transferred to a UV plate, and the UV spectrum was collected and used as a reference. Then, paint the membrane with 5 μL of gastrointestinal tract (GIT) lipid. The acceptor chamber was filled with 200 μL of acceptor solution buffer, and the donor chamber was filled with 200 μL of diluted compound solution. The PAMPA sandwich was assembled and left at 25 °C for 4 h. The UV spectra (240–500 nm) from the donor and the acceptor were collected. The permeability coefficient was calculated with the PAMPA Explorer Command software (Version 3.7.4.1) based on the area under the curve (AUC) of the reference plate, the donor plate, and the acceptor plate. The permeability coefficient of the compound was tested for four times, and the data are shown as the average values.

[6] = Parallel artificial membrane permeability assay (PAMPA)
Description: as §4
as §5, with “The PAMPA sandwich was assembled and left at 25 °C for 4 h.” left out

[7] = test system: lung cancer A549 transplanted mouse model; experiment: In vivo tumor growth inhibition, intravenous administration; parameters: species or system Kunming mice; conditions: for Body Weight After-Dose / Inhibitory Rate / Weight of Tumor: two weeks
Method: The lung cancer A549 transplanted mouse model was employed. DDO-6101 and antitumor drug 5-fluorouracil (5-FU) were also tested for comparison.
(§6) Kunming mice with body weights of 18–22 g were transplanted with lung cancer A549 cells according to protocols of transplant tumor research, as previously reported. Twenty-four hours after tumor transplantation, animals were weighed and randomly divided into five groups. All test drugs were given […] 24 h after tumor transplantation. The treated groups were intravenously injected or administered per os different doses of test compounds, respectively. The negative control group received 0.9% normal saline. Treatments were conducted at a frequency of one dose per two days for the intravenous group or one dose per day for the per os group for two or one week, respectively. All animals were sacrificed 24 h after the final treatment. All data are presented as mean ± SD and the statistical significance was evaluated by t-test.

[8] = test system: lung cancer A549 transplanted mouse model; experiment: In vivo tumor growth inhibition, per os administration; parameters: species or system Kunming mice; conditions: for Body Weight After-Dose / Inhibitory Rate / Weight of Tumor: 50 mg/kg daily, one week; for Body Weight Pre-Dose: 50 mg/kg
Description: Subsequently, 8g was set to determine further its in vivo efficacy with per os administration on the growth of inoculated A549 in mice using DDO-6101 as a comparison control. […] Thus, compound 8g was identified as a new and orally-active natural-product-like caged xanthone and also a promising antitumor agent for further clinical development.
as §6

[9] = test system: human lung carcinoma A549 cell line; experiment: MTT antiproliferative assay, A549; type: cell-based; conditions: for IC50: Homo sapiens, A549, MTT, 72 h
Method: as §1, §2, §3

[10] = test system: cisplatin-resistant A549 cell line (A549/cisplatin); experiment: MTT antiproliferative assay, A549/cisplatin; type: cell-based; conditions: Homo sapiens, 72 h
Method: as §1, §2, §3

[11] = A549/Taxol, MTT, 72 h, read-out: IC50 A549/Taxol

Structure (SMILES) | IC50 [1, 11] [nM] | IC50 [2] [nM] | IC50 [3] [nM] | IC50 (U2OS cells) [nM] | logD [4] | solubility [5] [µM] | Papp at 4 h, 10 mM ([6]; pH 5) [×10⁻⁶ cm/s] | Papp at 4 h, 10 mM ([6]; pH 6.2) [×10⁻⁶ cm/s] | Papp at 4 h, 10 mM ([6]; pH 7.4) [×10⁻⁶ cm/s] | Body Weight Pre-Dose ([7]; 20 mg/kg) [g] | Body Weight After-Dose ([7]; 20 mg/kg) [g] | Inhibitory Rate ([7]; 20 mg/kg) [%] | Weight of Tumor ([7]; 20 mg/kg) | Body Weight After-Dose [8] [g] | Inhibitory Rate [8] [%] | Weight of Tumor [8] | Body Weight Pre-Dose [8] [g] | IC50 [9] [nM] | IC50 [10] [nM] | melting point [°C] | further results
CC(C)=CCC12OC(C)(C)C3CC(C=C4C(=O)c5c(O)cccc5OC431)C2=O (centres unmarked) [DDO-6101, reference compound] | 460 ± 30 | 2040 ± 80 | 710 ± 100 | 5350 ± 80 | 2.9 | < 5 | 23.6 ± 5.5 | 25.8 ± 1.1 | 18 ± 3.9 | 21.13 ± 1.22 | 27.69 ± 1.90 | 34.56 | 0.89 ± 0.18 ^b g | 26.69 ± 1.90 | 21.43 | 1.10 ± 0.25 ^b g | 21.13 ± 1.02 | – | – | – | –
CC(C)=CCC12OC(C)(C)C3CC(C=C4C(=O)c5c(OCc6cn(CCCN(C)C)nn6)cccc5OC431)C2=O (centres unmarked) [Compound 8b] | 1300 ± 80 | 1360 ± 160 | 2270 ± 50 | 2730 ± 50 | 1.8 | 1540 (≈ 842 µg/mL) | 16.3 ± 1.2 | 41.7 ± 3.2 | 76.1 ± 6.4 | – | – | – | – | – | – | – | – | 2620 ± 200 | 1660 ± 110 | 133 to 136 | –
CC(C)=CCC12OC(C)(C)C3CC(C=C4C(=O)c5c(OCc6cn(CCN7CCCC7)nn6)cccc5OC431)C2=O (centres unmarked) [Compound 8c] | 1290 ± 70 | 1190 ± 310 | 980 ± 310 | 2010 ± 200 | 2.2 | 1400 (≈ 782 µg/mL) | 42.3 ± 1.5 | 75.4 ± 6.9 | 91.9 ± 6 | – | – | – | – | – | – | – | – | 2580 ± 390 | 1340 ± 90 | 168 to 170 | –
CC(C)=CCC12OC(C)(C)C3CC(C=C4C(=O)c5c(OCc6cn(CCN7CCOCC7)nn6)cccc5OC431)C2=O (centres unmarked) [Compound 8g] | 420 ± 50 | 3790 ± 430 | 280 ± 30 | 950 ± 210 | 1.3 | 3020 (≈ 1740 µg/mL) | 51.3 ± 4.8 | 63.1 ± 5.6 | 74.4 ± 6.8 | 20.67 ± 1.30 | 27.73 ± 2.78 | 71.32 | 0.40 ± 0.14 ^b g | 27.73 ± 2.78 | 66.43 | 0.47 ± 0.12 ^a g | 20.67 ± 1.20 | 310 ± 20 | 330 ± 70 | – | fold higher activity than DDO-6101 in A549 cells ([9]; from IC50 values): approximately eight-fold; IC50 ([1]; range over both resistant A549 lines and both compounds, read-out: IC50 values, taxol-resistant and cisplatin-resistant A549 cell lines): 330 to 550 nM; Pe range ([6]; range under different pH from 5.0 to 7.4): 51.3–74.4 × 10^–6 cm/s; Body Weight Pre-Dose ([7]; 5 mg/kg): 20.80 ± 1.53 g; Body Weight After-Dose ([7]; 5 mg/kg): 28.53 ± 2.81 g; Inhibitory Rate ([7]; 5 mg/kg): 30.88%; Weight of Tumor ([7]; 5 mg/kg): 0.94 ± 0.24 ^a g; Body Weight Pre-Dose ([7]; 10 mg/kg): 21.40 ± 1.81 g; Body Weight After-Dose ([7]; 10 mg/kg): 28.08 ± 2.66 g; Inhibitory Rate ([7]; 10 mg/kg): 52.21%; Weight of Tumor [7]: 0.65 ± 0.17 ^b g
CC(C)=CCC12OC(C)(C)C3CC(C=C4C(=O)c5c(OCc6cn(CCN(C)C)nn6)cccc5OC431)C2=O (centres unmarked) [Compound 8a] | 1220 ± 210 | 2120 ± 410 | 1640 ± 260 | 2220 ± 90 | 2.1 | 1120 (≈ 597 µg/mL) | 27.9 ± 3.3 | 58.8 ± 2.1 | 91.4 ± 9.8 | – | – | – | – | – | – | – | – | 1950 ± 400 | 1480 ± 100 | 156 to 158 | –

— paper PMC6150271, “‘Click Chemistry’ Synthesis of Novel Natural Product-Like Caged Xanthones Bearing a 1,2,3-Triazole Moiety with Improved Druglike Properties as Orally Active Antitumor Agents” (Molecules : A Journal of Synthetic Chemistry and Natural …, 2017)
